Reference: patent US5395947A, “Platinum(II) complex and processes for preparing the same” (Sunkyong Industries, Ltd., priority 1991, dated 1995)

Experiments:
[1] = test system: ICR mice; assay: Acute toxicity test; assay type: in vivo; design: Lethality: unit not given here; settings: for Lethality: 10080 min
Summary of the method: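 Single i.p. administration to ICR mice (7 weeks old, both sexes, n=6/group); appearance and mortality logged over 7 days, dead animals autopsied for gross pathology.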

[2] = Test for water solubility; assay type: physicochemical; settings: water
Excerpt: 3. Test for water solubility
A standard plot of UV absorbance(220 nm) vs. concentration was made; and employed to determine water-solubility.
The mixture was then passed through a 0.45 micron disposable membrane filter before dilution and UV measurement.

[3] = test system: murine leukemia L1210 cells; assay: Growth inhibition test on cultured murine leukemia L1210 cells; assay type: cell-based; settings: 48 hours, 37° C., Trypan blue viability
Summary of the method: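 Read-out is Trypan blue (0.17%) viability versus compound-free controls. Cells, 1×10^5, were cultured 48 h at 37° C under 5% CO2 in RPMI 1640/10% FCS containing various compound concentrations.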

[4] = test system: murine leukemia L1210; assay: Antitumor activity test on murine leukemia L1210 in vivo; design: species or system male BDF1 mice; settings: days 1, 5, 9
Summary of the method: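 Male BDF1 mice (6 weeks, 21±3 g; n=7) received 1×10^6 leukemia cells into the peritoneum on day 0, then test compound suspended or dissolved in 0.5% CMC i.p. on days 1, 5, 9. Activity expressed as T/C %, mean survival treated versus 0.5% CMC-injected controls.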

O=C1[O][Pt-2]2([NH2+]CC3OCOC3C[NH2+]2)[O]C(=O)C12CCC2 [Example 20, cis-cyclobutane-1,1-dicarboxylato [(4R,5R)-4,5-bis(aminomethyl)-1,3-dioxolane]platinum (II)]
Number of dead mice for 7 days ([1]; female, 94 mg/kg i.p.): 0/6
Number of dead mice, 1st day ([1]; female, 94 mg/kg i.p.): 0/6
Number of dead mice for 7 days ([1]; female, 123 mg/kg i.p.): 2/6
Number of dead mice, 1st day ([1]; female, 123 mg/kg i.p.): 0/6
Number of dead mice, 4th day ([1]; female, 123 mg/kg i.p.): 2/6
Lethality ([1]; female, 123 mg/kg i.p.): 33.3
Number of dead mice for 7 days ([1]; female, 160 mg/kg i.p.): 4/6
Number of dead mice, 1st day ([1]; female, 160 mg/kg i.p.): 0/6
Number of dead mice, 4th day ([1]; female, 160 mg/kg i.p.): 2/6
Number of dead mice, 5th day ([1]; female, 160 mg/kg i.p.): 2/4
Lethality ([1]; female, 160 mg/kg i.p.): 66.7
Number of dead mice for 7 days ([1]; female, 208 mg/kg i.p.): 6/6
Number of dead mice, 1st day ([1]; female, 208 mg/kg i.p.): 0/6
Number of dead mice, 3rd day ([1]; female, 208 mg/kg i.p.): 1/6
Number of dead mice, 4th day ([1]; female, 208 mg/kg i.p.): 5/5
Lethality ([1]; female, 208 mg/kg i.p.): 100.0
Number of dead mice for 7 days ([1]; female, 270 mg/kg i.p.): 6/6
Number of dead mice, 1st day ([1]; female, 270 mg/kg i.p.): 0/6
Number of dead mice, 2nd day ([1]; female, 270 mg/kg i.p.): 4/6
Number of dead mice, 3rd day ([1]; female, 270 mg/kg i.p.): 2/2
Lethality ([1]; female, 270 mg/kg i.p.): 100.0
Number of dead mice for 7 days ([1]; male, 94 mg/kg i.p.): 0/6
Number of dead mice, 1st day ([1]; male, 94 mg/kg i.p.): 0/6
Number of dead mice for 7 days ([1]; male, 123 mg/kg i.p.): 2/6
Number of dead mice, 1st day ([1]; male, 123 mg/kg i.p.): 1/6
Number of dead mice, 5th day ([1]; male, 123 mg/kg i.p.): 1/5
Lethality ([1]; male, 123 mg/kg i.p.): 33.3
Number of dead mice for 7 days ([1]; male, 160 mg/kg i.p.): 5/6
Number of dead mice, 1st day ([1]; male, 160 mg/kg i.p.): 0/6
Number of dead mice, 4th day ([1]; male, 160 mg/kg i.p.): 2/6
Number of dead mice, 5th day ([1]; male, 160 mg/kg i.p.): 1/4
Number of dead mice, 6th day ([1]; male, 160 mg/kg i.p.): 2/3
Lethality ([1]; male, 160 mg/kg i.p.): 83.3
Number of dead mice for 7 days ([1]; male, 208 mg/kg i.p.): 6/6
Number of dead mice, 1st day ([1]; male, 208 mg/kg i.p.): 0/6
Number of dead mice, 4th day ([1]; male, 208 mg/kg i.p.): 6/6
Lethality ([1]; male, 208 mg/kg i.p.): 100.0
Number of dead mice for 7 days ([1]; male, 270 mg/kg i.p.): 6/6
Number of dead mice, 1st day ([1]; male, 270 mg/kg i.p.): 0/6
Number of dead mice, 2nd day ([1]; male, 270 mg/kg i.p.): 4/6
Number of dead mice, 3rd day ([1]; male, 270 mg/kg i.p.): 2/2
Lethality ([1]; male, 270 mg/kg i.p.): 100.0
Solubility in water [2]: 3.1 mg/mL
IC50 (concentration required for 50% inhibition of growth) [3]: 1.28 µg/mL
T/C (%) ([4]; 6.2 mg/kg i.p.): 122%
T/C (%) ([4]; 12.5 mg/kg i.p.): 187%
T/C (%) ([4]; 25 mg/kg i.p.): 137%
T/C (%) ([4]; 50 mg/kg i.p.): 193%
T/C (%) ([4]; 100 mg/kg i.p.): 271%

CC1OC2C[NH2+][Pt-2]3([NH2+]CC2O1)[O]C(=O)C1(CCC1)C(=O)[O]3 [Example 22, cis-cyclobutane-1,1-dicarboxylato[(4R,5R)-4,5-bis(aminomethyl)-2-methyl-1,3-dioxolane]platinum(II)]
Number of dead mice for 7 days ([1]; female, 94 mg/kg i.p.): 0/6
Number of dead mice, 1st day ([1]; female, 94 mg/kg i.p.): 0/6
Number of dead mice for 7 days ([1]; female, 123 mg/kg i.p.): 1/6
Number of dead mice, 1st day ([1]; female, 123 mg/kg i.p.): 0/6
Number of dead mice, 4th day ([1]; female, 123 mg/kg i.p.): 1/6
Lethality ([1]; female, 123 mg/kg i.p.): 16.7
Number of dead mice for 7 days ([1]; female, 160 mg/kg i.p.): 3/6
Number of dead mice, 1st day ([1]; female, 160 mg/kg i.p.): 0/6
Number of dead mice, 4th day ([1]; female, 160 mg/kg i.p.): 2/6
Number of dead mice, 5th day ([1]; female, 160 mg/kg i.p.): 1/4
Lethality ([1]; female, 160 mg/kg i.p.): 50.0
Number of dead mice for 7 days ([1]; female, 208 mg/kg i.p.): 5/6
Number of dead mice, 1st day ([1]; female, 208 mg/kg i.p.): 0/6
Number of dead mice, 3rd day ([1]; female, 208 mg/kg i.p.): 1/6
Number of dead mice, 4th day ([1]; female, 208 mg/kg i.p.): 4/5
Lethality ([1]; female, 208 mg/kg i.p.): 83.3
Number of dead mice for 7 days ([1]; female, 270 mg/kg i.p.): 6/6
Number of dead mice, 1st day ([1]; female, 270 mg/kg i.p.): 0/6
Number of dead mice, 2nd day ([1]; female, 270 mg/kg i.p.): 4/6
Number of dead mice, 3rd day ([1]; female, 270 mg/kg i.p.): 2/2
Lethality ([1]; female, 270 mg/kg i.p.): 100.0
Number of dead mice for 7 days ([1]; male, 94 mg/kg i.p.): 0/6
Number of dead mice, 1st day ([1]; male, 94 mg/kg i.p.): 0/6
Number of dead mice for 7 days ([1]; male, 123 mg/kg i.p.): 0/6
Number of dead mice, 1st day ([1]; male, 123 mg/kg i.p.): 0/6
Number of dead mice for 7 days ([1]; male, 160 mg/kg i.p.): 4/6
Number of dead mice, 1st day ([1]; male, 160 mg/kg i.p.): 1/6
Number of dead mice, 4th day ([1]; male, 160 mg/kg i.p.): 1/5
Number of dead mice, 5th day ([1]; male, 160 mg/kg i.p.): 1/4
Number of dead mice, 6th day ([1]; male, 160 mg/kg i.p.): 1/3
Lethality ([1]; male, 160 mg/kg i.p.): 66.7
Number of dead mice for 7 days ([1]; male, 208 mg/kg i.p.): 5/6
Number of dead mice, 1st day ([1]; male, 208 mg/kg i.p.): 0/6
Number of dead mice, 4th day ([1]; male, 208 mg/kg i.p.): 4/6
Number of dead mice, 5th day ([1]; male, 208 mg/kg i.p.): 1/2
Lethality ([1]; male, 208 mg/kg i.p.): 83.3
Number of dead mice for 7 days ([1]; male, 270 mg/kg i.p.): 6/6
Number of dead mice, 1st day ([1]; male, 270 mg/kg i.p.): 0/6
Number of dead mice, 2nd day ([1]; male, 270 mg/kg i.p.): 2/6
Number of dead mice, 3rd day ([1]; male, 270 mg/kg i.p.): 4/4
Lethality ([1]; male, 270 mg/kg i.p.): 100.0
Solubility in water [2]: 24.9 mg/mL
IC50 (concentration required for 50% inhibition of growth) [3]: 0.90 µg/mL
T/C (%) ([4]; 6.2 mg/kg i.p.): 125%
T/C (%) ([4]; 12.5 mg/kg i.p.): 129%
T/C (%) ([4]; 25 mg/kg i.p.): 247%
T/C (%) ([4]; 50 mg/kg i.p.): 262%
T/C (%) ([4]; 100 mg/kg i.p.): 382%
